Reference: PubChem BioAssay (NCI)
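Dose response: 5 concentrations. Exposure: 48 h. Format: 96-well plates. Endpoint: linear interpolation; highest concentration if not reached. GI50: concentration for 50% inhibition of growth. TGI marks complete inhibition of growth.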

How the values were obtained:
Assay in all cases: growth of human tumour cells (NCI), 48 h
HCC-2998 colon = system: HCC-2998 colon
IGROV1 ovarian = system: IGROV1 ovarian
LOX IMVI melanoma = system: LOX IMVI melanoma
NCI-H522 lung = system: NCI-H522 lung
SK-OV-3 ovarian = system: SK-OV-3 ovarian
SR leukemia = system: SR leukemia
TK-10 renal = system: TK-10 renal
A549 NSCLC = system: A549 NSCLC
CAKI-1 renal = system: CAKI-1 renal
HCT-15 colon = system: HCT-15 colon

Compound | TGI (HCC-2998 colon) [µM] | TGI (IGROV1 ovarian) [µM] | TGI (LOX IMVI melanoma) [µM] | TGI (NCI-H522 lung) [µM] | TGI (SK-OV-3 ovarian) [µM] | TGI (SR leukemia) [µM] | TGI (TK-10 renal) [µM] | TGI (A549 NSCLC) [µM] | TGI (CAKI-1 renal) [µM] | TGI (HCT-15 colon) [µM] | GI50 (A549 NSCLC) [µM] | GI50 (CAKI-1 renal) [µM] | GI50 (HCC-2998 colon) [µM] | GI50 (HCT-15 colon) [µM] | GI50 (IGROV1 ovarian) [µM] | GI50 (LOX IMVI melanoma) [µM] | GI50 (SK-OV-3 ovarian) [µM] | GI50 (TK-10 renal) [µM] | GI50 (NCI-H522 lung) [µM]
O=c1cc(-c2ccccn2)[nH]c2ccc(Cl)cc12 | > 100 | > 100 | > 100 | 97.2 | > 100 | > 100 | > 100 |  |  |  |  |  |  |  |  |  |  |  | 
CC(C)C(=O)Oc1cc2c(=O)oc3c(OC(=O)C(C)C)c(OC(=O)C(C)C)cc4c(=O)oc(c1OC(=O)C(C)C)c2c34 | > 100 | > 100 | > 100 | > 100 | > 100 |  | > 100 | > 100 | > 100 | > 100 |  |  |  |  |  |  |  |  | 
N[C@@H]1CCCC[C@@H]1N.O=P([O-])([O-])CN(CP(=O)([O-])[O-])CP(=O)([O-])[O-].[Pt+2] | > 100 | > 100 | > 100 |  | > 100 |  | > 100 | > 100 | > 100 | > 100 | > 100 | > 100 | > 100 | > 100 | > 100 | > 100 | > 100 | > 100 | 
Cc1cc(Cl)cc2c1NC(=O)C2=O (tested in a mixture with another compound) | > 100 | > 100 | 33.2 | 86 | > 100 |  | > 100 | > 100 | > 100 | > 100 |  |  |  |  |  |  |  |  | 
O=C(Cc1csc2nc(-c3ccc(Br)cc3)cn12)N/N=C/c1ccc(O)cc1 | 29.4 | 39.7 | 26.1 | 34.5 | > 100 |  | 33.4 | 33.7 | 49.3 | 61.5 | 10.6 | 14.9 | 14.6 | 17.9 | 10.6 | 11.1 | 52.5 | 9.79 | 10.7
Cc1cc([N+](=O)[O-])c(C)c(Br)c1C |  | > 100 |  | > 100 | > 100 |  | > 100 | > 100 | > 100 | > 100 |  |  |  |  |  |  |  |  | 
Nc1ccc2c(c1)c(N)nn2C(=O)Nc1ccc(Cc2ccccc2)cc1 | 14.8 | 54.1 | 16 | 39.6 | 37.7 |  | 46 | 57.1 | 26.8 | 14.2 | 6.58 | 4.3 | 4.17 | 2.75 | 16.4 | 3.38 | 15.3 | 19.4 | 14.7
C=[CH][Sn]([CH]=C)([O]c1cccc2cccnc12)[O]c1cccc2cccnc12 | 8.85 | 11 | 4.86 | 3.36 | 44.8 |  | 29.4 | 13.9 | 22.8 | 6.4 | 3.37 | 6.73 | 4.44 | 2.36 | 3.31 | 1.46 | 14.5 | 9.46 | 0.93
COc1ccccc1NC(=O)C(CC(C(=O)Nc1ccccc1OC)/C(C)=N/Nc1ccc([N+](=O)[O-])cc1[N+](=O)[O-])/C(C)=N/Nc1ccc([N+](=O)[O-])cc1[N+](=O)[O-] (centres undefined) | > 100 | > 100 | > 100 | > 100 | > 100 |  | 60 | > 100 | > 100 | > 100 |  |  |  |  |  |  |  |  | 
COC(=O)CC(C(C(C)=O)C(=O)OCc1ccccc1)N1C(=O)OCC1c1ccccc1 (centres undefined) | > 100 | > 100 | > 100 |  |  | > 100 | > 100 | > 100 |  | > 100 |  |  |  |  |  |  |  |  | 
CC1OC(OC2CCC3(C=O)C4CCC5(C)C(C6=CC(=O)OC6)CCC5(O)C4CCC3(O)C2)C(O)C(O)C1O (centres undefined) |  | 0.0179 | 6.73e-05 | 4.41e-05 | 0.000102 |  | 0.000193 |  | 4.15e-05 | 9.68e-05 |  |  |  |  |  |  |  |  | 
CCN(CC)CCN(C(=O)C(C)(C)C)c1ccccc1N |  | > 100 |  | > 100 | > 100 | > 100 | > 100 | > 100 | > 100 | > 100 |  |  |  |  |  |  |  |  | 
Cc1nc(-n2nc(-c3ccccc3)cc2-c2ccccc2)sc1C(/C=C/c1ccc([N+](=O)[O-])cc1)=N/NC(=O)c1ccncc1 | 26.6 | > 100 | 48.8 |  | > 100 |  | 82.9 | > 100 |  | 96.2 |  |  |  |  |  |  |  |  | 
COc1ccc(CCN2CCc3c(C)c(C#N)c4nc5ccccc5n4c32)cc1OC | > 100 | > 100 | > 100 | 57 | > 100 |  | > 100 | > 100 | > 100 | > 100 |  |  |  |  |  |  |  |  | 
N#CC1C=Cc2ccccc2N1C(=O)Oc1ccccc1 (centres undefined) | > 100 | > 100 | > 100 | > 100 |  | > 100 | > 100 | > 100 | > 100 | > 100 |  |  |  |  |  |  |  |  | 
O=C(Nc1cccc(NC(=O)c2cc(=O)c3ccccc3o2)n1)c1cc(=O)c2ccccc2o1 | > 100 | > 100 | > 100 | 48.3 | > 100 |  | > 100 | > 100 | > 100 | > 100 |  |  |  |  |  |  |  |  | 
COc1cc2c(c(OC)c1OC)-c1ccc(SC)c(=O)cc1[C@@H](NC(=O)c1ccc(Cl)cc1)CC2 | < 0.01 | > 100 | 14.1 |  |  | > 100 | > 100 | > 100 |  | 0.026 |  |  |  |  |  |  |  |  | 
COC1(OC)c2no[n+]([O-])c2C(OC)(OC)c2c1no[n+]2[O-] | 41.6 | 51 | 33.5 | 47.5 |  | 31.6 | 31.5 | 82 | 92.9 | 67.4 |  |  |  |  |  |  |  |  | 
COc1ccc(C2CCc3cc4c(cc3/C2=N/OC(C)=O)OCO4)cc1OC (centres undefined) |  | > 100 | 33.1 | 53.4 | 95.3 |  | > 100 | 80.1 |  | > 100 |  |  |  |  |  |  |  |  | 
N=C1C=C(N)C(=O)c2[nH]c(=O)ccc21 | 35.8 | 3.39 | 3.69 | 3.54 | 26.7 |  | 24.9 | 4.99 | 13 | 4.06 |  |  |  |  |  |  |  |  | 
CSC1=NCC2(S1)c1ccccc1N(C(=O)OC(C)(C)C)C2N1CCCCC1 (centres undefined) | > 100 | > 100 |  | > 100 |  |  | > 100 | > 100 |  |  | > 100 |  | 31 |  | > 100 |  |  | > 100 | 27.5
